Reference: PMC10132233 (Journal of Enzyme Inhibition and Medicinal Chemistry, 2023)

Experiments:
[1] = target: T1, p38α mitogen-activated protein kinase (MAPK14) (Homo sapiens, UniProt Q16539); assay: Small kinase panel, MAPK14; type: biochemical; conditions: read-out: % kinase inhibition (relative to DMSO control) MAPK14
T1 construct: purchased Reaction Biology Co. (Malvern, PA)
Experimental: Enzyme inhibitory assays were carried out as described in our previous reports in the literature. […] The HotSpot assay platform includes specific kinase/substrate pairs and required cofactors. The base reaction buffer consisted of 20 mM Hepes (pH 7.5), 10 mM MgCl2, 1 mM EGTA, 0.02% Brij35, 0.02 mg/mL BSA, 0.1 mM Na3VO4, 2 mM DTT, and 1% DMSO. The tested compounds were dissolved in 100% DMSO to a specific concentration, and serial dilution was conducted. The reaction mixture containing the tested compound and 33P-ATP was incubated at room temperature for 2 h, and radioactivity was detected using the filter-binding method.

[2] = tested on: 22RV1 cells; assay: Apoptosis analysis (Annexin V-PE/DAPI), 22RV1; type: cell-based, human; conditions: 22RV1, compound at its IC50, 24 h
Experimental: The control PC3 and 22RV1 cells and compound-treated cells were stained with PE-Annexin V and DAPI for a more appropriate cell death examination, and the cellular fluorescence analysis was then performed using ADAMII LS (Figures 4–6). Apoptosis is a type of programmed cell death that can be detected using Annexin V and the DAPI reagent. On plasma membranes, annexin V binds to […] and DAPI can bind to DNA in cells. The dot plot and image data detect early and late apoptotic cells using these two fluorophores. […] Moreover, compound 9f-treated PC3 cells went through early apoptosis (6.27%), and late apoptosis phase (16.94%) (Figures 4(D) and 6). Likewise, the fluorescence images for 22RV1 (Figure 5) and PC3 (Figure 6) cells complement the dot plot data, as higher fluorescence of DAPI and RF images clearly distinguished compound 9f-treated cells from control. […]
Annexin V conjugated to fluorochromes (PE) retains its high affinity for phosphatidylserine (PS), making it a sensitive probe for flow cytometric analysis of apoptotic cells. […] When apoptosis is measured over time, cells can often be tracked from PE Annexin V and DAPI negative (viable, or no measurable apoptosis), to PE Annexin V positive and DAPI negative (early apoptosis), and finally to PE Annexin V and DAPI positive (end stage apoptosis and death). […]

[3] = tested on: PC3 cells; assay: Cell cycle analysis (PI, ADAMII LS), PC3; type: cell-based, human; conditions: PC3, compound at its IC50, 24 h
Experimental: Cell cycle progression is responsible for normal cell growth and proliferation. DNA damage can result in apoptosis, which causes cell death, or DNA repair. At specific checkpoints that serve as control mechanisms to guarantee correct cell division, the state of the cells is evaluated. Checkpoints in the cell cycle include the G1 (restriction), S […], and G2/M[29]. Anticancer medications’ function is to halt cell division at these checkpoints. Treatment with potent cytotoxic (as an anticancer) agents can determine at which phase apoptosis occurs in the cell cycle. […] PC3 and 22RV1 cells were treated with compound 9f at its IC50. The comparison data in Table 6 and Figure 3 indicate that compound 9f (test 2) arrested the cell cycle of 22RV1 and PC3 cells at the G2/M phase by 62.74% and 49.43%, respectively (Figure 3). Also, the cell population in G1 and S phases decreases after treatment (test 2) compared to a negative control (test 1).
To determine the effect of the tested compound on the cell cycle distribution of PC3 and 22RV1 cell lines. Cell cycles can be analysed with checking the cell cycle change compared to the control group. Control cells without any treatment were used as a reference point for determining the cell cycle arrest phase for the test sample. Cell cycle analysis was performed using the Cell Cycle Analysis Kit (ADAMII LS, NanoEntek, Seoul, South Korea). Briefly, cancer cells were first seeded in six-well plates (0.8 × 10^6 cells per well) and then incubated for 24 h at 37 °C in a 5% CO2-containing atmosphere. […] 25 µL of sample mixture was loaded into ADAMII LS assay slide, then the slide was incubated at room temperature for 1 min in the dark and run on the ADAMII LS fluorescence cell analyser. Cell cycle distribution was calculated using ADAMII LS software (ADAMII LS, NanoEntek, Seoul, South Korea).

T1 sequence (Q16539 whole entry): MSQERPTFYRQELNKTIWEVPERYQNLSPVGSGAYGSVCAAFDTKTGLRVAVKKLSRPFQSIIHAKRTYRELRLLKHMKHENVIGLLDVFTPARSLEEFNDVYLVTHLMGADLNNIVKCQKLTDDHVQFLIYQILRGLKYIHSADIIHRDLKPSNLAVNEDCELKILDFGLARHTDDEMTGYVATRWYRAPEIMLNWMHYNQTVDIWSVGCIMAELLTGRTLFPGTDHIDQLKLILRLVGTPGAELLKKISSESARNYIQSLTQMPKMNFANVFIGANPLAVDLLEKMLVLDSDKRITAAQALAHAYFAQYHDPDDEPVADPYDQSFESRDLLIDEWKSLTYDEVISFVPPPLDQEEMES

SMILES: COc1cc2ncnc(Nc3ccc(Oc4cccc(C(F)(F)F)c4)c(Cl)c3)c2cc1OCCCCn1ccnc1[N+](=O)[O-] [Compound 9f, N-(3-Chloro-4-(3-(trifluoromethyl)phenoxy)phenyl)-7-methoxy-6-(4-(2-nitro-1H-imidazol-1-yl)butoxy)quinazolin-4-amine]
- inhibition at 10 µM [1]: 24.3%
- early apoptosis (E.A) [2]: 13.20%
- late apoptosis (L.A) [2]: 15.38%
- G0/G1 phase Percent [3]: 7.22%
- G2/M phase Percent [3]: 49.43%
- S phase Percent [3]: 28.14%
